The values below come from ChEMBL document CHEMBL5647694, “Novel orally bioavailable EZH1/2 dual inhibitors with greater antitumor efficacy than an EZH2 selective inhibitor” (Cancer Sci, 2017).

For test [1], the target named is Serine/threonine-protein kinase 24 (Homo sapiens) (UniProt Q9Y6E0). Nature of the test: Inhibition of N-terminal GST-fused full length human MST3 (1 to 431 residues) expressed in baculovirus expression system using Moesin-derived peptide as substrate at 1 uM in presence of ATP by Mobility shift assay.
Test [2] has as its target Casein kinase II alpha'/ beta (Homo sapiens) (UniProt P67870+P19784). Nature of the test: Inhibition of N-terminal GST-fused full length human CK2alpha2 (1 to 350 residues)/His-tagged human CK2beta (1 to 215 residues ) expressed in baculovirus expression system using CK2tide as substrate at 1 uM in presence of ATP by Mobility shift assay.
Test [3] concerns the target Serine/threonine-protein kinase pim-2 (Homo sapiens) (UniProt Q9P1W9). Put plainly: Inhibition of N-terminal GST-tagged full length human PIM2 (1 to 311 residues) expressed in baculovirus expression system using S6K2 peptide as substrate at 1 uM in presence of ATP by Mobility shift assay.
The target of test [4] is Homeodomain-interacting protein kinase 3 (Homo sapiens) (UniProt Q9H422). Nature of the test: Inhibition of N-terminal GST-fused human HIPK3 catalytic domain (161 to 562 residues) expressed in baculovirus expression system using DYRKtide-F as substrate at 1 uM in presence of ATP by Mobility shift assay.
In test [5] the target is Protein kinase C epsilon type (Homo sapiens) (UniProt Q02156). Put plainly: Inhibition of N-terminal GST-fused human full length PKC-epsilon (1 to 737 residues ) expressed in baculovirus expression system using PKC peptide as substrate at 1 uM in presence of ATP by Mobility shift assay.
The target of test [6] is Tyrosine-protein kinase JAK2 (Homo sapiens) (UniProt O60674). Nature of the test: Inhibition of N-terminal His-tagged human JAK2 catalytic domain (826 to 1132 residues) expressed in baculovirus-infected Sf21 cells using Srctide as substrate at 1 uM in presence of ATP by Mobility shift assay.
The target in test [7] is Serine/threonine-protein kinase D3 (Homo sapiens) (UniProt O94806). Nature of the test: Inhibition of N-terminal GST-fused full length human PKD3 (1 to 890 residues) expressed in baculovirus expression system using GS peptide as substrate at 1 uM in presence of ATP by Mobility shift assay.
Test [8] concerns the target Ribosomal protein S6 kinase alpha-4 (Homo sapiens) (UniProt O75676). Nature of the test: Inhibition of N-terminal GST-fused full length human MSK2 (1 to 772 residues) expressed in baculovirus expression system using Crosstide as substrate at 1 uM in presence of ATP by Mobility shift assay.
The target in test [9] is Proto-oncogene tyrosine-protein kinase receptor Ret (Homo sapiens) (UniProt P07949). Put plainly: Inhibition of N-terminal GST-tagged human RET cytoplasmic domain (658 to 1114 residues) expressed in baculovirus-infected Sf21 cells using CSKtide as substrate at 1 uM in presence of ATP by Mobility shift assay.
Test [10] has as its target Serine/threonine-protein kinase Nek2 (Homo sapiens) (UniProt P51955). Put plainly: Inhibition of N-terminal His-tagged full length human NEK2 (1 to 445 residues) expressed in baculovirus expression system using CDK7 peptide as substrate at 1 uM in presence of ATP by Mobility shift assay.
Test [11] addresses Mitogen-activated protein kinase 13 (Homo sapiens) (UniProt O15264). Put plainly: Inhibition of N-terminal GST-fused full length human p38delta (1 to 365 residues) expressed in Escherichia coli expression system using Modified Erktide as substrate at 1 uM in presence of ATP by Mobility shift assay.
The target of test [12] is Mast/stem cell growth factor receptor Kit (Homo sapiens) (UniProt P10721). Put plainly: Inhibition of N-terminal GST-tagged human KIT cytoplasmic domain (544 to 976 residues) expressed in baculovirus-infected Sf21 cells using Srctide as substrate at 1 uM in presence of ATP by Mobility shift assay.
The target in test [13] is Tyrosine-protein kinase JAK1 (Homo sapiens) (UniProt P23458). Put plainly: Inhibition of N-terminal GST-fused human JAK1 catalytic domain (850 to 1154 residues) expressed in baculovirus-infected Sf21 cells using JAK1 substrate peptide at 1 uM in presence of ATP by Mobility shift assay.
Test [14] addresses Hepatocyte growth factor receptor (Homo sapiens) (UniProt P08581). Put plainly: Inhibition of N-terminal GST-tagged human MET cytoplasmic domain (956 to 1390 residues ) expressed in baculovirus-infected Sf21 cells using Srctide as substrate at 1 uM in presence of ATP by Mobility shift assay.
Test [15] deals with cAMP-dependent protein kinase catalytic subunit gamma (Homo sapiens) (UniProt P22612). Put plainly: Inhibition of N-terminal GST-tagged full length human PKACgamma (1 to 351 residues) expressed in baculovirus expression system using Kemptide as substrate at 1 uM in presence of ATP by Mobility shift assay.
Test [16] concerns the target Calcium/calmodulin-dependent protein kinase type 1 (Homo sapiens) (UniProt Q14012). Put plainly: Inhibition of N-terminal GST-tagged full length human CAMK1a (1 to 370 residues) expressed in baculovirus-infected Sf21 cells using GS peptide as substrate at 1 uM in presence of ATP by Mobility shift assay.
Test [17] concerns the target Calcium/calmodulin-dependent protein kinase type IV (Homo sapiens) (UniProt Q16566). Put plainly: Inhibition of N-terminal GST-tagged full length human CAMK4 (1 to 473 residues) expressed in baculovirus-infected Sf21 cells using GS peptide as substrate at 1 uM in presence of ATP by Mobility shift assay.
Test [18] addresses Maternal embryonic leucine zipper kinase (Homo sapiens) (UniProt Q14680). Nature of the test: Inhibition of N-terminal GST-fused truncated human MELK (1 to 493 residues) expressed in Escherichia coli expression system using GS peptide as substrate at 1 uM in presence of ATP by Mobility shift assay.
Test [19] has as its target Serine/threonine-protein kinase MRCK alpha (Homo sapiens) (UniProt Q5VT25). Nature of the test: Inhibition of N-terminal GST-fused truncated human MRCKalpha (1 to 574 residues) expressed in baculovirus expression system using DAPK1tide as substrate at 1 uM in presence of ATP by Mobility shift assay.
Test [20] concerns the target Calcium/calmodulin-dependent protein kinase type II subunit alpha (Homo sapiens) (UniProt Q9UQM7). Nature of the test: Inhibition of N-terminal GST-fused full length human CAMK2a (1 to 478 residues) expressed in baculovirus-infected Sf21 cells using GS peptide as substrate at 1 uM in presence of ATP by Mobility shift assay.
In test [21] the target is cGMP-dependent protein kinase 2 (Homo sapiens) (UniProt Q13237). Nature of the test: Inhibition of N-terminal GST-fused full length human CGK2 (1 to 762 residues) expressed in baculovirus expression system using Kemptide as substrate at 1 uM in presence of ATP by Mobility shift assay.
The target of test [22] is Serine/threonine-protein kinase haspin (Homo sapiens) (UniProt Q8TF76). Put plainly: Inhibition of N-terminal GST-fused full length human Haspin (1 to 798 residues) expressed in baculovirus expression system using Histone H3 peptide as substrate at 1 uM in presence of ATP by Mobility shift assay.

For the compound `Cc1cc(C)c(CNC(=O)c2cc(Br)c3c(c2C)O[C@@](C)([C@H]2CC[C@H](N(C)C)CC2)O3)c(=O)[nH]1`, the inhibition in test [1] was -6.2%; in test [2], -5.5%; in [3] it was -3.9%; in test [4], -1.8%; in [5], 17%; in [6] it was -4.4%. The inhibition in test [7] was 6.7%; in test [8], 0.1%; in [9], -2.3%; in test [10] it was 1.5%; in test [11] it was -4.7%; in test [12], -4.7%. In addition, the inhibition in [13] was -3.3%; in [14], -2.1%; in test [15], -1.4%; in [16] it was 0.2%; in [17], -2.9%; in [18], 2.9%. Also, the inhibition in test [19] was 2.7%; in test [20] it was -1.1%; in test [21], -2.3%; in test [22], 6.5%.
With `Cc1cc(C)c(CNC(=O)c2cc(Cl)c3c(c2C)O[C@@](C)([C@H]2CC[C@H](N(C)C)CC2)O3)c(=O)[nH]1` [VALEMETOSTAT], the inhibition is -1.9% in [1]; -4.7% in test [2]; -1.4% in test [3]; 1.4% in [4]; 16.4% in test [5]; -4.5% in test [6]. In addition, the inhibition was 3.5% in test [7]; -2% in [8]; -5.7% in test [9]; 1.4% in test [10]; -6.9% in test [11]; -5.6% in test [12]. For the same compound, the inhibition in test [13] was -3.3%; in test [14] it was -5%; in test [15] it was -2.4%; in [16], -2.8%; in [17], -7.2%; in test [18] it was 1.3%. Further, the inhibition in [19] is 0.8%; in [20], -2.8%; in test [21], -4.3%; in [22], 12.2%.

Broadly, the inhibition is the relative decrease from the control value, in per cent.
